The values below come from patent US20200101108A1, “METHODS OF TREATING T CELL EXHAUSTION BY INHIBITING OR MODULATING T CELL RECEPTOR SIGNALING” (THE BOARD OF TRUSTEES OF THE LE-LAND STANDFORD JUNIOR …, priority 2017, published 2020).

Data set [1] has as its system HA-GD2.28z CAR T cells. Put plainly: Cytokine release after expansion in drug and removal of drug before tumor co-culture. The format is cell-based, human.
In data set [2] the target is Fyn (Homo sapiens, UniProt P06241). The note with it: cited from earlier work.
The test system of data set [3] is Src kinases. Conditions: cited from earlier work.
Data set [4] addresses Lck (Homo sapiens, UniProt P06239). The note with it: cited from earlier work.
In data set [5] the test system is HA-GD2.28z CAR T cells. Put plainly: Incucyte cytotoxicity after expansion in drug and removal of drug before tumor co-culture. The note with it: expanded in drug, drug removed 18-24 hours before 72 hours co-culture.
Data set [6] deals with HA-GD2.28z CAR T cells. The experiment in a line: Cytokine release assay (ELISA), CAR T cells co-cultured with GD2-overexpressing nalm6 in presence of drug. The note with it: drug present during 24 hours co-culture.
Data set [7] relates to CD19.28z CAR T cells. The experiment in a line: CAR T cell activation and degranulation (CD69/CD107a) on co-culture with Nalm6 tumor cells in presence of drug. The note with it: nanomolar levels; 6 hours co-culture with tumor.
Data set [8] has as its system GD2.28z.FKBP CAR. The experiment in a line: Regulation of GD2.28z.FKBP CAR surface expression by shield-1 (FACS). Conditions: adding or subtracting shield-1 in culture medium. The format is cell-based, human. The source says:
FIG. 1: Characterization of the GD2.28z.FKBP CAR. T cells were transduced with lentivirus encoding the GD2.28z.FKBP CAR on day 1 after activation and subsequently cultured with various concentrations of shield-1 in the growth medium. On day 7, CAR expression was quantified via FACS.

For data set [9], the target named is CD19 (Homo sapiens (Human)) (UniProt P15391).

Chain of Fyn (P06241 whole entry, species assumed): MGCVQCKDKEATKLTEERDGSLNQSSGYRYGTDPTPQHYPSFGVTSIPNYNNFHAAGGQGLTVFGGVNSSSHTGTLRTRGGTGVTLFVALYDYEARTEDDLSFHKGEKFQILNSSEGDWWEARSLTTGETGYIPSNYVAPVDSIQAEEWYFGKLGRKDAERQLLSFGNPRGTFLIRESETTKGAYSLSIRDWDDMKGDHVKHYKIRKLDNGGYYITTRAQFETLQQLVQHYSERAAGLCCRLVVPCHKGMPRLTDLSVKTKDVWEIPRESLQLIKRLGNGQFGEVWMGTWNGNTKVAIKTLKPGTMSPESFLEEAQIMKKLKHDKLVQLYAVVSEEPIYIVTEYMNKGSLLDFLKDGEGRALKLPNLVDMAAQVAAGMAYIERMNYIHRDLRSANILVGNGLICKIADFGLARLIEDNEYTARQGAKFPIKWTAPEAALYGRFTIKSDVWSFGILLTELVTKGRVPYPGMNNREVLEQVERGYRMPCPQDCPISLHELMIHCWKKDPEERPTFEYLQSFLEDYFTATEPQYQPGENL
Chain of Lck (P06239 whole entry, species assumed): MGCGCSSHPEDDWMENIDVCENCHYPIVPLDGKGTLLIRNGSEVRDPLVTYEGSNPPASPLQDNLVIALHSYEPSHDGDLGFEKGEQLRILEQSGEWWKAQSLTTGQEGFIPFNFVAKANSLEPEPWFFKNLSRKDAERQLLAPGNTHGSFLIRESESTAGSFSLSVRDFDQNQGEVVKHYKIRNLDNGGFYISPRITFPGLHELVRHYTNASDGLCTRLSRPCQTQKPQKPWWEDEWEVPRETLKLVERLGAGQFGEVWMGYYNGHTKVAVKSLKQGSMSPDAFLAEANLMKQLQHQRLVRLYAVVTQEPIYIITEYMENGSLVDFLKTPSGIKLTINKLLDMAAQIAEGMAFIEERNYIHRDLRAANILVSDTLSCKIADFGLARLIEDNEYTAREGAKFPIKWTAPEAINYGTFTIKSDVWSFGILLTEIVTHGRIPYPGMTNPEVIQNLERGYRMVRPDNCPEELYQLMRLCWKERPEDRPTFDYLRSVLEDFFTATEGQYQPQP

As for `Cc1ccc(C(=O)Nc2ccc(CN3CCN(C)CC3)c(C(F)(F)F)c2)cc1C#Cc1cnc2cccnn12` [ponatinib, 3-(imidazo[1,2-b]pyridazin-3-ylethynyl)-4-methyl-N-(4-((4-methylpiperazin-1-yl)methyl)-3-(trifluoromethyl)phenyl)benzamide], the “reversibility of the inhibitory effect on CAR T cell function” value in data set [1] was “reversible”. In addition, the “CAR T cell cytokine secretion” value in [1] (expanded in drug, drug removed 18-24 hours before 24 hours co-culture) is recorded as “dose-dependently augmented”. In data set [2], the “inhibition of Fyn” value is recorded as “does not affect the function of Fyn or Src kinases”. Further, the “inhibition of Src kinases” value in data set [3] is “does not affect the function of Fyn or Src kinases”. In addition, in [4], the “inhibition of Lck” value was “can bind to and inhibit Lck”. Also, in [5], the cytotoxic response entry is recorded as “more potent cytotoxic response”. In data set [6], the “IFNγ secretion in response to tumor” value is “potently inhibited” and the “IL-2 secretion in response to tumor” value was “potently inhibited”. Moreover, the “activation and degranulation (CD69 and CD107a co-expression)” value in data set [7] was “potently inhibited activation and degranulation of CAR T cells in a dose-dependent manner”.
Take `CC[C@H](C(=O)N1CCCC[C@H]1C(=O)O[C@H](CCc1ccc(OC)c(OC)c1)c1cccc(OCCN2CCOCC2)c1)c1cc(OC)c(OC)c(OC)c1` [shield-1]: in data set [8], the CAR surface expression entry is “rapidly and dose-dependently regulated”.
Take CD19.28z CAR (FMC63 scFv): in data set [9], the CD69 and CD107a surface expression (FACS) after 6 h co-culture was 80%.
